From PubChem BioAssay AID1259407 (Chemical Carcinogenesis Research Information System (CCRIS), 2018)
Active and inactive are the calls of the source. No rule for the calls is given here.

Tested on: CCRIS mutagenicity, Ames/micronucleus/aberration tests
Test: CCRIS mutagenicity studies
[1] = Test System: AMES SALMONELLA TYPHIMURIUM, Strain/Indicator: TA98, Metabolic Activation: NONE, Method: STANDARD PLATE
[2] = Test System: AMES SALMONELLA TYPHIMURIUM, Strain/Indicator: TA98, Metabolic Activation: RAT, LIVER, S-9, AROCLOR 1254, Method: STANDARD PLATE
[3] = Test System: AMES SALMONELLA TYPHIMURIUM, Strain/Indicator: TA100, Metabolic Activation: NONE, Method: STANDARD PLATE
[4] = Test System: AMES SALMONELLA TYPHIMURIUM, Strain/Indicator: TA100, Metabolic Activation: RAT, LIVER, S-9, AROCLOR 1254, Method: STANDARD PLATE
[5] = Test System: AMES SALMONELLA TYPHIMURIUM, Strain/Indicator: TA1537, Metabolic Activation: NONE, Method: STANDARD PLATE
[6] = Test System: AMES SALMONELLA TYPHIMURIUM, Strain/Indicator: TA1537, Metabolic Activation: RAT, LIVER, S-9, AROCLOR 1254, Method: STANDARD PLATE

Measured: mutagenic call

CCCCC(CC)COCCC#N (configuration not stated)
inactive: Test System: AMES SALMONELLA TYPHIMURIUM, Strain/Indicator: TA97, Metabolic Activation: HAMSTER, LIVER, S-9, AROCLOR 1254 (10%), Method: PREINCUBATION inactive; negative | Test System: AMES SALMONELLA TYPHIMURIUM, Strain/Indicator: TA97, Metabolic Activation: HAMSTER, LIVER, S-9, AROCLOR 1254 (30%), Method: PREINCUBATION inactive; negative | Test System: AMES SALMONELLA TYPHIMURIUM, Strain/Indicator: TA97, Metabolic Activation: NONE, Method: PREINCUBATION inactive; negative | Test System: AMES SALMONELLA TYPHIMURIUM, Strain/Indicator: TA97, Metabolic Activation: RAT, LIVER, S-9, AROCLOR 1254 (10%), Method: PREINCUBATION inactive; negative | Test System: AMES SALMONELLA TYPHIMURIUM, Strain/Indicator: TA97, Metabolic Activation: RAT, LIVER, S-9, AROCLOR 1254 (30%), Method: PREINCUBATION inactive; negative | Test System: AMES SALMONELLA TYPHIMURIUM, Strain/Indicator: TA98, Metabolic Activation: HAMSTER, LIVER, S-9, AROCLOR 1254 (10%), Method: PREINCUBATION inactive; negative | Test System: AMES SALMONELLA TYPHIMURIUM, Strain/Indicator: TA98, Metabolic Activation: HAMSTER, LIVER, S-9, AROCLOR 1254 (30%), Method: PREINCUBATION inactive; negative | Test System: AMES SALMONELLA TYPHIMURIUM, Strain/Indicator: TA98, Metabolic Activation: NONE, Method: PREINCUBATION inactive; negative | Test System: AMES SALMONELLA TYPHIMURIUM, Strain/Indicator: TA98, Metabolic Activation: RAT, LIVER, S-9, AROCLOR 1254 (10%), Method: PREINCUBATION inactive; negative | Test System: AMES SALMONELLA TYPHIMURIUM, Strain/Indicator: TA98, Metabolic Activation: RAT, LIVER, S-9, AROCLOR 1254 (30%), Method: PREINCUBATION inactive; negative | Test System: AMES SALMONELLA TYPHIMURIUM, Strain/Indicator: TA100, Metabolic Activation: HAMSTER, LIVER, S-9, AROCLOR 1254 (10%), Method: PREINCUBATION inactive; negative | Test System: AMES SALMONELLA TYPHIMURIUM, Strain/Indicator: TA100, Metabolic Activation: HAMSTER, LIVER, S-9, AROCLOR 1254 (30%), Method: PREINCUBATION inactive; negative | Test System: AMES SALMONELLA TYPHIMURIUM, Strain/Indicator: TA100, Metabolic Activation: NONE, Method: PREINCUBATION inactive; negative | Test System: AMES SALMONELLA TYPHIMURIUM, Strain/Indicator: TA100, Metabolic Activation: RAT, LIVER, S-9, AROCLOR 1254 (10%), Method: PREINCUBATION inactive; negative | Test System: AMES SALMONELLA TYPHIMURIUM, Strain/Indicator: TA100, Metabolic Activation: RAT, LIVER, S-9, AROCLOR 1254 (30%), Method: PREINCUBATION inactive; negative | Test System: AMES SALMONELLA TYPHIMURIUM, Strain/Indicator: TA1535, Metabolic Activation: HAMSTER, LIVER, S-9, AROCLOR 1254 (10%), Method: PREINCUBATION inactive; negative | Test System: AMES SALMONELLA TYPHIMURIUM, Strain/Indicator: TA1535, Metabolic Activation: HAMSTER, LIVER, S-9, AROCLOR 1254 (30%), Method: PREINCUBATION inactive; negative | Test System: AMES SALMONELLA TYPHIMURIUM, Strain/Indicator: TA1535, Metabolic Activation: NONE, Method: PREINCUBATION inactive; negative | Test System: AMES SALMONELLA TYPHIMURIUM, Strain/Indicator: TA1535, Metabolic Activation: RAT, LIVER, S-9, AROCLOR 1254 (10%), Method: PREINCUBATION inactive; negative | Test System: AMES SALMONELLA TYPHIMURIUM, Strain/Indicator: TA1535, Metabolic Activation: RAT, LIVER, S-9, AROCLOR 1254 (30%), Method: PREINCUBATION inactive; negative

COc1cc(O)c2c(=O)oc3cc(O)cc(C)c3c2c1
inactive: [1] inactive; negative | Test System: AMES SALMONELLA TYPHIMURIUM, Strain/Indicator: TA98, Metabolic Activation: RAT LIVER S-9, AROCLOR 1254, Method: STANDARD PLATE inactive; negative | [2] inactive; negative | [3] inactive; negative | Test System: AMES SALMONELLA TYPHIMURIUM, Strain/Indicator: TA100, Metabolic Activation: RAT LIVER S-9, AROCLOR 1254, Method: STANDARD PLATE inactive; negative | [4] inactive; negative | Test System: Ames Salmonella typhimurium, Strain/Indicator: TA97, Metabolic Activation: None, Method: Standard plate inactive; negative. nitrosation did not increase mutagenicity | Test System: Ames Salmonella typhimurium, Strain/Indicator: TA97, Metabolic Activation: Rat, Liver, S-9, Aroclor 1254 (10%), Method: Standard plate inactive; negative. nitrosation did not increase mutagenicity | Test System: Ames Salmonella typhimurium, Strain/Indicator: TA102, Metabolic Activation: None, Method: Standard plate inactive; negative. nitrosation did not increase mutagenicity | Test System: Ames Salmonella typhimurium, Strain/Indicator: TA102, Metabolic Activation: Rat, Liver, S-9, Aroclor 1254 (10%), Method: Standard plate inactive; negative. nitrosation did not increase mutagenicity | Test System: Ames Salmonella typhimurium, Strain/Indicator: TA104, Metabolic Activation: None, Method: Standard plate inactive; negative. nitrosation did not increase mutagenicity | Test System: Ames Salmonella typhimurium, Strain/Indicator: TA104, Metabolic Activation: Rat, Liver, S-9, Aroclor 1254 (10%), Method: Standard plate inactive; negative. nitrosation did not increase mutagenicity
active: Test System: E. COLI, Strain/Indicator: ND-160, Metabolic Activation: NONE, Method: STANDARD PLATE active; positive

Cc1cc(C)c(CN2C3c4ccccc4-c4ccccc4C32)c(C)c1 (configuration not stated)
active: [3] active; positive

CC(=O)CC(=O)CCC(=O)O
inactive: Test System: AMES SALMONELLA TYPHIMURIUM, Strain/Indicator: TA98, Metabolic Activation: HAMSTER, LIVER, S-9, AROCLOR 1254, Method: STANDARD PLATE inactive; negative | [1] inactive; negative | [2] inactive; negative | Test System: AMES SALMONELLA TYPHIMURIUM, Strain/Indicator: TA100, Metabolic Activation: HAMSTER, LIVER, S-9, AROCLOR 1254, Method: STANDARD PLATE inactive; negative | [3] inactive; negative | [4] inactive; negative | Test System: AMES SALMONELLA TYPHIMURIUM, Strain/Indicator: TA1535, Metabolic Activation: HAMSTER, LIVER, S-9, AROCLOR 1254, Method: STANDARD PLATE inactive; negative | Test System: AMES SALMONELLA TYPHIMURIUM, Strain/Indicator: TA1535, Metabolic Activation: NONE, Method: STANDARD PLATE inactive; negative | Test System: AMES SALMONELLA TYPHIMURIUM, Strain/Indicator: TA1535, Metabolic Activation: RAT, LIVER, S-9, AROCLOR 1254, Method: STANDARD PLATE inactive; negative | Test System: AMES SALMONELLA TYPHIMURIUM, Strain/Indicator: TA1537, Metabolic Activation: HAMSTER, LIVER, S-9, AROCLOR 1254, Method: STANDARD PLATE inactive; negative | [5] inactive; negative | [6] inactive; negative | Test System: AMES SALMONELLA TYPHIMURIUM, Strain/Indicator: TA1538, Metabolic Activation: HAMSTER, LIVER, S-9, AROCLOR 1254, Method: STANDARD PLATE inactive; negative | Test System: AMES SALMONELLA TYPHIMURIUM, Strain/Indicator: TA1538, Metabolic Activation: NONE, Method: STANDARD PLATE inactive; negative | Test System: AMES SALMONELLA TYPHIMURIUM, Strain/Indicator: TA1538, Metabolic Activation: RAT, LIVER, S-9, AROCLOR 1254, Method: STANDARD PLATE inactive; negative | Test System: CHINESE HAMSTER V-79, Strain/Indicator: V-79 (HGPRT)/6-THIOGUANINE, Metabolic Activation: NONE inactive; negative | Test System: MOUSE LYMPHOMA, Strain/Indicator: L5178Y (TK+/TK-), Metabolic Activation: NONE, Method: SUSPENSION/PLATE inactive; negative. reevaluation of results: negative
active: Test System: MOUSE LYMPHOMA, Strain/Indicator: L5178Y (TK+/TK-), Metabolic Activation: RAT, LIVER, S-9, AROCLOR 1254, Method: SUSPENSION/PLATE active; positive. reevaluation of results: positive

CC(=O)OCN(C)[N+](=O)[O-]
active: Test System: AMES SALMONELLA TYPHIMURIUM, Strain/Indicator: TA100, Metabolic Activation: RAT, LIVER, S-9, AROCLOR 1254, Method: PREINCUBATION active; positive

Cc1cc(O)c2c(c1)C(=O)C13C(=C2O)C(=O)C2C(O)C1C1C(O)C3C(=O)C3=C(O)c4c(O)cc(C)cc4C(=O)C321 (configuration not stated)
inactive: [2] inactive; negative | [4] inactive; negative | [5] inactive; negative | [6] inactive; negative
